Assay results reported in US11352624B2, “Reducing nonsense-mediated MRNA decay” (Cold Spring Harbor Laboratory, priority 2013, dated 2022).

Experiments:
[1] = system: mammalian cells carrying PTCs related to Usher syndrome, Rett syndrome, cystic fibrosis, and mucopolysaccharidosis I-Hurler (MPS I-H); settings: cited from earlier work
[2] = system: PTC-containing CFTR transcript (W1282X); experiment: Radioactive RT-PCR of cells expressing CFTR minigene carrying W1282X, transfected with ASOs; type: cell-based, human; settings: for relative potency among ASOs of each CFTR exon-exon junction (screening): boundaries 24/25, 25/26, 26/27, 19 ASOs each
Description: ASO microwalks are performed as previously described (7), altogether targeting a region that spans 33 nt from −6 to −38 of the 3′ end of exons that are EJC-bound (FIG. 2). Briefly, cell lines expressing minigenes carrying mutations in the last EJC-bound exon or their wild-type versions and GFP (by transfection using lipofectamine or induction with tetracycline) are co-transfected with each of the 15-mer ASOs, independently. In total, 19 ASOs that are consecutively shifted by 1 nt are tested for each EJC-bound exon-exon junction downstream of the mutations (FIG. 2). This methodology was followed in designing the sequences for the ASOs to target PTC-containing (e.g., disease-causing nonsense mutation) HBB alleles (See SEQ ID NOs 1-19), MECP2 alleles (See SEQ ID NOs 20-38), CFTR alleles (See SEQ ID NOs 39-114), DMD alleles (See SEQ ID NOs 115-190), and IDUA alleles (See SEQ ID Nos 191-268). Different concentrations of ASOs are tested to obtain a dose-response curve. In the case of genes containing more than one exon-exon junction downstream of a PTC, minigene intermediates are constructed to screen for NMD-inhibiting ASOs one junction at a time and in combination with the best targeting ASO that resulted from the screening of the upstream junction. Abrogation of NMD is assessed by RT-PCR, and the percentage of mutant transcript is calculated as described above. Because some of the ASOs might interfere with splicing-factor binding sites, it is important to determine whether the splicing of the targeted exons is adversely affected. Only the ASOs that abrogate NMD without negative effects on splicing are pursued.
Moreover, minigenes consisting of CFTR exons 22-25, 22-26 and 22-27 carrying the W1282X mutation in exon 23 as well as its restive wild-type version were generated. As described above, 19 15-mer ASOs were obtained that target a region spanning nucleotides −38 to −6 of the exons 24/25 boundary and transfected to CFTR minigene expressing cells. Once this screening identified the best NMD inhibiting ASO, it is then transfected in combination with each the 19 15-mer ASOs that target a region spanning nucleotides −38 to −6 of the exons 25/26 boundary. The resulting best combination of ASOs (from each exon-exon boundary) was then transfected in combination with each of the 19 15-mer ASOs that target a region spanning nucleotides −38 to −6 of the exons 26/27 boundary. The levels of spliced CFTR mRNA were then measured after induced expression using radioactive RT-PCR.

[3] = system: PTC-containing HBB transcript (T39); experiment: Radioactive RT-PCR of HeLa cells co-transfected with HBB reporters and ASOs; type: cell-based, human; settings: for mRNA levels of PTC-containing HBB transcript (T39): HeLa cells, ASO 50 nM co-transfected with HBB Q39X gene, compared with control-ASO, percentages normalized to WT
Source text: (§1) In some examples, it is desirable to start with mutations located in the last presumptive EJC-bound exon, as targeting only one junction at a time will simplify the interpretation of results. Once the effectiveness of preventing EJC deposition by ASOs is confirmed, two or more junctions are targeted. In some examples, three mutations for each gene are selected, and only mutations that lead to a transcript level <50% of the wild-type transcript will be targeted by the ASO microwalk (discussed below). […] Briefly, minigenes carrying the selected mutations and their wild-type versions are co-transfected with a GFP-expressing vector into HeLa cells. Forty-eight hours later, RNA is extracted and radioactive RT-PCR is performed. Products corresponding to the wild-type and mutant minigenes are normalized to GFP expression, and the percentage of the mutant over the wild-type transcript is calculated. In the case of integrated minigenes into U2OS cells, wild-type and mutant minigene products are normalized to endogenous housekeeping genes, e.g. GAPDH.
ASO microwalks are performed as previously described (7), altogether targeting a region that spans 33 nt from −6 to −38 of the 3′ end of exons that are EJC-bound (FIG. 2). Briefly, cell lines expressing minigenes carrying mutations in the last EJC-bound exon or their wild-type versions and GFP (by transfection using lipofectamine or induction with tetracycline) are co-transfected with each of the 15-mer ASOs, independently. […] Abrogation of NMD is assessed by RT-PCR, and the percentage of mutant transcript is calculated as described above. […]
A set of 19 overlapping 2′-O-methoxyethyl phosphorothioate (MOE-P=S) ASO 15mers targeting the canonical EJC region in exon 2 of HBB were synthesized. […] The levels of spliced HBB mRNA were then measured after transient or induced expression using radioactive RT-PCR. […] Truncated protein levels resulting from the ASO treatment were assessed by western blot analysis using anti-GFP antibody.

[4] = system: MECP2 S65X transcript; experiment: MECP2 S65X minigene reporter, mRNA level after ASO transfection; type: cell-based, human; settings: microwalk of 19 ASOs
Source text: as §1
ASO microwalks are performed as previously described (7), altogether targeting a region that spans 33 nt from −6 to −38 of the 3′ end of exons that are EJC-bound (FIG. 2). […] Abrogation of NMD is assessed by RT-PCR, and the percentage of mutant transcript is calculated as described above. […]

| Compound | restoration of functional protein [1] | relative potency among ASOs of each CFTR exon-exon junction (screening) [2] | other results |
| --- | --- | --- | --- |
| NC[C@H]1O[C@@H](OC2C(O)[C@H](N)CC(N)[C@H]2O[C@H]2OC(CO)[C@@H](O)C(O)C2N)C(O)C1O (some centres unmarked) [NB30] | restore a significant amount of functional protein |  |  |
| NCC[C@H](O)C(=O)N[C@@H]1CC(N)[C@@H](O[C@H]2OC(CO)[C@@H](O)[C@H](O)C2N)[C@H](O[C@@H]2O[C@H](CN)[C@H](O)C2O)C1O (some centres unmarked) [NB54] | restore a significant amount of functional protein |  |  |
| C[C@@H](O)C1O[C@H](O[C@@H]2C(N)C[C@@H](NC(=O)[C@@H](O)CCN)[C@@H](O)C2O[C@@H]2O[C@H](CN)[C@H](O)C2O)[C@@H](N)C(O)[C@@H]1O (some centres unmarked) [NB84] | restore a significant amount of functional protein |  |  |
| ACTGGGTTCATCAAG (listed as DNA, chemistry not given here) [SEQ ID NO: 83, ASO targeting CFTR exon 25] |  | most potent ASOs targeting each exon-exon junction |  |
| CATATTTCTTGATCA (listed as DNA, chemistry not given here) [SEQ ID NO: 65, ASO targeting CFTR exon 24] |  | most potent ASOs targeting each exon-exon junction |  |
| CTCAGGATCCACGTG (2'-MOE phosphorothioate, further chemistry not given here) [SEQ ID NO: 15, 2′-O-methoxyethyl phosphorothioate (MOE-P=S) 15mer] |  |  | mRNA levels of PTC-containing HBB transcript (T39) [3]: increase in mRNA levels; relative potency among ASOs targeting HBB exon 2 ([3]; microwalk of 19 ASOs, -38 to -6 from the exon 2/exon 3 junction): most potent ASO targeting HBB exon 2 |
| GCATTCCAGCATTGC (listed as DNA, chemistry not given here) [SEQ ID NO: 107, ASO targeting CFTR exon 26] |  | most potent ASOs targeting each exon-exon junction | mRNA level of CFTR W1282X transcript, ASOs tested independently (relative potency) ([2]; CFTR 22-17 minigene, one ASO per exon-exon junction downstream of W1282X): most potent ASO |
| TACTTCCCAGCAGAG (listed as DNA, chemistry not given here) [SEQ ID NO: 25] |  |  | relative potency among ASOs targeting MECP2 exon 3 [4]: most potent ASO targeting MECP2 exon 3 |
| TCTCAGGATCCACGT (all 2'-MOE, all phosphorothioate, methylation of C not given here) [SEQ ID NO: 16, ASO targeting HBB exon 2; 2′-O-methoxyethyl phosphorothioate (MOE-P=S) 15mer] |  |  | mRNA levels of PTC-containing HBB transcript (T39) [3]: increase in mRNA levels |
